Assay results from the NIST ThermoML archive (doi:10.1016/j.jct.2015.11.025).
Numbers after ± are expanded uncertainties.

What was measured:
[1] = Crystal
[2] = Molar enthalpy of transition or fusion; conditions: Crystal; DSC

For `CCOC(=O)Cc1c(C(=O)OCC)sc(N)c1C#N`, the mass density ([1]; 298.15 K, 101.33 kPa, flotation method) was 1297 ± 2 kg/m3, the Normal melting temperature ([1]; DTA) was 136.90 ± 1.1 °C and the “Molar enthalpy of transition or fusion” value [2] was 9.77 ± 0.263 kcal/mol.
